# Assay results: PubChem BioAssay (NCI)
#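 Results reflect a 48-hour exposure of cells in 96-well plates to compound at five concentrations. At the GI50, growth is halved. Definition used: TGI = concentration required for complete inhibition of growth.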
# Key:
# Test in all cases: inhibition of tumour cell growth, NCI panel, 48 h
# SF-295 CNS = test system: SF-295 CNS
# MDA-MB-231 breast = test system: MDA-MB-231 breast
# BT-549 breast = test system: BT-549 breast
# UO-31 renal = test system: UO-31 renal
# OVCAR-8 ovarian = test system: OVCAR-8 ovarian
# SW-620 colon = test system: SW-620 colon
# SK-MEL-2 melanoma = test system: SK-MEL-2 melanoma
# SK-MEL-5 melanoma = test system: SK-MEL-5 melanoma
# SN12C renal = test system: SN12C renal
# A498 renal = test system: A498 renal
# NCI-H226 lung = test system: NCI-H226 lung
# SF-268 CNS = test system: SF-268 CNS
# 786-0 renal = test system: 786-0 renal
# MDA-MB-435 = test system: MDA-MB-435
# MOLT-4 leukemia = test system: MOLT-4 leukemia
# NCI/ADR-RES ovarian = test system: NCI/ADR-RES ovarian
# SK-MEL-28 melanoma = test system: SK-MEL-28 melanoma
# OVCAR-5 ovarian = test system: OVCAR-5 ovarian
# RXF 393 renal = test system: RXF 393 renal
# K-562 leukemia = test system: K-562 leukemia
# HOP-62 NSCLC = test system: HOP-62 NSCLC
# OVCAR-3 ovarian = test system: OVCAR-3 ovarian
# KM12 colon = test system: KM12 colon
# ACHN renal = test system: ACHN renal
# DU-145 prostate = test system: DU-145 prostate
# HCT-116 colon = test system: HCT-116 colon
# HL-60(TB) leukemia = test system: HL-60(TB) leukemia
# OVCAR-4 ovarian = test system: OVCAR-4 ovarian
# UACC-62 melanoma = test system: UACC-62 melanoma
# A549 NSCLC = test system: A549 NSCLC
# HT29 colon = test system: HT29 colon
# SF-539 CNS = test system: SF-539 CNS
# IGROV1 ovarian = test system: IGROV1 ovarian
# NCI-H23 lung = test system: NCI-H23 lung
# NCI-H522 lung = test system: NCI-H522 lung
# HCC-2998 colon = test system: HCC-2998 colon
# COLO 205 colon = test system: COLO 205 colon
# LOX IMVI melanoma = test system: LOX IMVI melanoma
# CAKI-1 renal = test system: CAKI-1 renal
# MDA-MB-468 breast = test system: MDA-MB-468 breast
# HOP-92 NSCLC = test system: HOP-92 NSCLC
# SR leukemia = test system: SR leukemia
# MCF7 breast = test system: MCF7 breast
# U251 CNS = test system: U251 CNS
# UACC-257 melanoma = test system: UACC-257 melanoma
# M14 melanoma = test system: M14 melanoma
# EKVX NSCLC = test system: EKVX NSCLC
# HCT-15 colon = test system: HCT-15 colon
# TK-10 renal = test system: TK-10 renal
# SNB-19 CNS = test system: SNB-19 CNS
# SK-OV-3 ovarian = test system: SK-OV-3 ovarian
# MALME-3M melanoma = test system: MALME-3M melanoma
# HS 578T breast = test system: HS 578T breast
# RPMI-8226 leukemia = test system: RPMI-8226 leukemia
# T-47D breast = test system: T-47D breast
# CCRF-CEM leukemia = test system: CCRF-CEM leukemia
# NCI-H460 lung = test system: NCI-H460 lung
# PC-3 prostate = test system: PC-3 prostate
smiles,measurement,setting,value
O=C(NNc1nc2cc(F)ccc2n2c(CN3CC4CNCC4C3)ccc12)c1ccncn1 (stereo unspecified),GI50,SF-295 CNS,0.421 µM
same,TGI,SF-295 CNS,10.7 µM
same,GI50,MDA-MB-231 breast,2.31 µM
same,TGI,MDA-MB-231 breast,16.2 µM
same,GI50,BT-549 breast,1.59 µM
same,TGI,BT-549 breast,13.2 µM
same,GI50,UO-31 renal,0.822 µM
same,TGI,UO-31 renal,11.7 µM
same,GI50,OVCAR-8 ovarian,1.29 µM
same,TGI,OVCAR-8 ovarian,10.4 µM
same,GI50,SW-620 colon,2.55 µM
same,TGI,SW-620 colon,23.1 µM
same,GI50,SK-MEL-2 melanoma,2.65 µM
same,TGI,SK-MEL-2 melanoma,14.7 µM
same,GI50,SK-MEL-5 melanoma,1.52 µM
same,TGI,SK-MEL-5 melanoma,8.29 µM
same,GI50,SN12C renal,1.79 µM
same,TGI,SN12C renal,11.8 µM
same,GI50,A498 renal,24.9 µM
same,TGI,A498 renal,40.4 µM
same,GI50,NCI-H226 lung,0.943 µM
same,TGI,NCI-H226 lung,6.73 µM
same,GI50,SF-268 CNS,1.71 µM
same,TGI,SF-268 CNS,15 µM
same,GI50,786-0 renal,0.5 µM
same,TGI,786-0 renal,11.3 µM
same,GI50,MDA-MB-435,3.68 µM
same,TGI,MDA-MB-435,17.6 µM
same,GI50,MOLT-4 leukemia,1.45 µM
same,TGI,MOLT-4 leukemia,9.6 µM
same,GI50,NCI/ADR-RES ovarian,11.5 µM
same,TGI,NCI/ADR-RES ovarian,29.9 µM
same,GI50,SK-MEL-28 melanoma,2.36 µM
same,TGI,SK-MEL-28 melanoma,14.1 µM
same,GI50,OVCAR-5 ovarian,2.49 µM
same,TGI,OVCAR-5 ovarian,17.5 µM
same,GI50,RXF 393 renal,1.58 µM
same,TGI,RXF 393 renal,12.8 µM
same,GI50,K-562 leukemia,1.76 µM
same,TGI,K-562 leukemia,11.9 µM
same,GI50,HOP-62 NSCLC,0.686 µM
same,TGI,HOP-62 NSCLC,12.1 µM
same,GI50,OVCAR-3 ovarian,3.26 µM
same,TGI,OVCAR-3 ovarian,17.3 µM
same,GI50,KM12 colon,1.78 µM
same,TGI,KM12 colon,16.2 µM
same,GI50,ACHN renal,0.62 µM
same,TGI,ACHN renal,11.2 µM
same,GI50,DU-145 prostate,3.26 µM
same,TGI,DU-145 prostate,15.7 µM
same,GI50,HCT-116 colon,0.73 µM
same,TGI,HCT-116 colon,13.7 µM
same,GI50,HL-60(TB) leukemia,1.23 µM
same,TGI,HL-60(TB) leukemia,4.51 µM
same,GI50,OVCAR-4 ovarian,1.56 µM
same,TGI,OVCAR-4 ovarian,17.3 µM
same,GI50,UACC-62 melanoma,1.19 µM
same,TGI,UACC-62 melanoma,3.41 µM
same,GI50,A549 NSCLC,2.09 µM
same,TGI,A549 NSCLC,14.9 µM
same,GI50,HT29 colon,2.02 µM
same,TGI,HT29 colon,18.1 µM
same,GI50,SF-539 CNS,1.56 µM
same,TGI,SF-539 CNS,6.4 µM
same,GI50,IGROV1 ovarian,2.36 µM
same,TGI,IGROV1 ovarian,13.3 µM
same,GI50,NCI-H23 lung,2.31 µM
same,TGI,NCI-H23 lung,10.4 µM
same,GI50,NCI-H522 lung,2.36 µM
same,TGI,NCI-H522 lung,11.7 µM
same,GI50,HCC-2998 colon,3.05 µM
same,TGI,HCC-2998 colon,17.5 µM
same,GI50,COLO 205 colon,3.05 µM
same,TGI,COLO 205 colon,12.1 µM
same,GI50,LOX IMVI melanoma,1 µM
same,TGI,LOX IMVI melanoma,4.05 µM
same,GI50,CAKI-1 renal,0.654 µM
same,TGI,CAKI-1 renal,12.8 µM
same,GI50,MDA-MB-468 breast,1.21 µM
same,TGI,MDA-MB-468 breast,3.57 µM
same,GI50,HOP-92 NSCLC,0.0544 µM
same,TGI,HOP-92 NSCLC,6.37 µM
same,GI50,SR leukemia,0.751 µM
same,TGI,SR leukemia,9.24 µM
same,GI50,MCF7 breast,2 µM
same,TGI,MCF7 breast,12.1 µM
same,GI50,U251 CNS,0.78 µM
same,TGI,U251 CNS,12.2 µM
same,GI50,UACC-257 melanoma,3.16 µM
same,TGI,UACC-257 melanoma,11 µM
same,GI50,M14 melanoma,0.804 µM
same,TGI,M14 melanoma,4.74 µM
same,GI50,EKVX NSCLC,0.441 µM
same,TGI,EKVX NSCLC,9.23 µM
same,GI50,HCT-15 colon,0.746 µM
same,TGI,HCT-15 colon,15.9 µM
same,GI50,TK-10 renal,0.648 µM
same,TGI,TK-10 renal,16.4 µM
same,GI50,SNB-19 CNS,2.67 µM
same,TGI,SNB-19 CNS,16.6 µM
same,GI50,SK-OV-3 ovarian,0.984 µM
same,TGI,SK-OV-3 ovarian,12.1 µM
same,GI50,MALME-3M melanoma,2.17 µM
same,TGI,MALME-3M melanoma,8.75 µM
same,GI50,HS 578T breast,10 µM
same,TGI,HS 578T breast,81.9 µM
same,GI50,RPMI-8226 leukemia,1.95 µM
same,TGI,RPMI-8226 leukemia,10.8 µM
same,GI50,T-47D breast,3.11 µM
same,TGI,T-47D breast,14.7 µM
same,GI50,CCRF-CEM leukemia,1.55 µM
same,TGI,CCRF-CEM leukemia,6.18 µM
same,GI50,NCI-H460 lung,0.591 µM
same,TGI,NCI-H460 lung,16.1 µM
same,GI50,PC-3 prostate,2.11 µM
same,TGI,PC-3 prostate,15.4 µM
